According to patent publication US8183212B2, “Compound having GPR54 agonistic activity” (Kyoto University, priority 2006, dated 2012):
Square brackets hold non-standard residues; d marks the D form. Peptide text beside a SMILES is read from it. 2Nal = N[C@@H](Cc1ccc2ccccc2c1)C(=O)O; 4Amb = NCc1ccc(C(=O)O)cc1; 4Abz = Nc1ccc(C(=O)O)cc1

Molecular target: GPR54 (Homo sapiens, UniProt Q969F8)
Assay: GPR54 agonist activity by Flipr assay (increase in intracellular Ca2+ measured as fluorescence intensity)
Type: cell-based
Settings: for % activity: fluorescence intensity with 10^-8 M pentapeptide derivative relative to 10^-6 M metastin (45-54) as 100%; for Q (=EC50 (compound)/EC50 [metastin (45-54)]): specific activity value relative to metastin (45-54)
Experimental: A compound having GPR54 agonist activity (pentapeptide derivative) was prepared according to a conventional Fmoc solid phase synthesis process using Rink-amide resin (Fields G B, Noble R L., Int J Pept Protein Res. 1990; 35, 161-214.). The GPR54 agonist activity of the obtained pentapeptide derivative was evaluated according to Flipr assay method wherein an increase in the intracellular Ca^2+ ion concentration due to receptor stimulation is measured as the fluorescence intensity. […] Hereafter, the agonist activity was mainly compared based on the Q value.

Sequence of GPR54 (Q969F8 whole entry, species assumed): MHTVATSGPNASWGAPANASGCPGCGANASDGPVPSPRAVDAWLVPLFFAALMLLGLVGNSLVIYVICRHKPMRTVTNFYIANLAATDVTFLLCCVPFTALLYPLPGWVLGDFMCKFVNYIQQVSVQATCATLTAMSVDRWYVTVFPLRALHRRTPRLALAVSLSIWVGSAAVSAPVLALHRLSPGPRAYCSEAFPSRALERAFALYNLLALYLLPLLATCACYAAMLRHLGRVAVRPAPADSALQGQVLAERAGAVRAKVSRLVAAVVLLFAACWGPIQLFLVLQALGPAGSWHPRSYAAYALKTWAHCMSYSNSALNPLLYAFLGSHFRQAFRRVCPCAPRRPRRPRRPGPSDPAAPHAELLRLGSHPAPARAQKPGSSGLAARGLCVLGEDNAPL

Compound | % activity [%] | other results
CC(C)C[C@H](NC(=O)CNC(=O)[C@H](Cc1ccccc1)NC(=O)c1ccc(CN(Cc2ccccn2)Cc2ccccn2)cc1)C(=O)N[C@@H](CCCNC(=N)N)C(=O)N[C@@H](Cc1c[nH]c2ccccc12)C(N)=O [Compound 1, reference compound] | 89 | 
CC(C)C[C@H](NC(=O)CNC(=O)[C@H](Cc1ccccc1)NC(=O)c1ccc(CNC(=N)N)cc1)C(=O)N[C@@H](CCCNC(=N)N)C(=O)N[C@@H](Cc1c[nH]c2ccccc12)C(N)=O [Compound 2, reference compound] | 94 | 
CC(C)C[C@H](NC(=O)CNC(=O)[C@H](Cc1ccccc1)NC(=O)c1ccc(CN)cc1)C(=O)N[C@@H](CCCNC(=N)N)C(=O)N[C@@H](Cc1c[nH]c2ccccc12)C(N)=O [Compound 6, 4-(aminomethyl)benzoyl-Phe-Gly-Leu-Arg-Trp-NH2] (H-[4Amb]FGLRW-NH2) | 97 | Q (=EC50 (compound)/EC50 [metastin (45-54)]): 3.4
CC(C)C[C@H](NC(=O)CNC(=O)[C@H](Cc1ccc2ccccc2c1)NC(=O)c1ccc(CN)cc1)C(=O)N[C@@H](CCCNC(=N)N)C(=O)N[C@@H](Cc1c[nH]c2ccccc12)C(N)=O [Compound 8, 4-(aminomethyl)benzoyl-Nal(2)-Gly-Leu-Arg-Trp-NH2] (H-[4Amb][2Nal]GLRW-NH2) | 89 | agonist activity, times stronger than compound 6 (compared with compound 6): about 4 times
CC(C)C[C@H](NC(=O)CNC(=O)[C@H](Cc1ccccc1)NC(=O)c1ccc(N)cc1)C(=O)N[C@@H](CCCNC(=N)N)C(=O)N[C@@H](Cc1c[nH]c2ccccc12)C(N)=O [Compound 20, 4-aminobenzoyl-Phe-Gly-Leu-Arg-Trp-NH2] (H-[4Abz]FGLRW-NH2) | 90 | 
CC(C)C[C@H](NC(=O)CNC(=O)[C@H](Cc1ccccc1)NC(=O)c1c[nH]cn1)C(=O)N[C@@H](CCCNC(=N)N)C(=O)N[C@@H](Cc1c[nH]c2ccccc12)C(N)=O [Compound 26, 4-imidazolylcarbonyl-Phe-Gly-Leu-Arg-Trp-NH2] | 88 | 
CC(C)C[C@H](NC(=O)CNC(=O)[C@H](Cc1ccccc1)NC(=O)c1ccc[nH]1)C(=O)N[C@@H](CCCNC(=N)N)C(=O)N[C@@H](Cc1c[nH]c2ccccc12)C(N)=O [Compound 27, 2-pyrrolylcarbonyl-Phe-Gly-Leu-Arg-Trp-NH2] | 96 | 
CC(=O)NCc1ccc(C(=O)N[C@@H](Cc2ccccc2)C(=O)NCC(=O)N[C@@H](CC(C)C)C(=O)N[C@@H](CCCNC(=N)N)C(=O)N[C@@H](Cc2c[nH]c3ccccc23)C(N)=O)cc1 [Compound 28, N-acetyl-4-(aminomethyl)benzoyl-Phe-Gly-Leu-Arg-Trp-NH2] (Ac-[4Amb]FGLRW-NH2) | 100 | 
CC(C)C[C@H](NC(=O)CNC(=O)[C@H](Cc1ccccc1)NC(=O)c1ccc(O)cc1)C(=O)N[C@@H](CCCNC(=N)N)C(=O)N[C@@H](Cc1c[nH]c2ccccc12)C(N)=O [Compound 30, 4-hydroxybenzoyl-Phe-Gly-Leu-Arg-Trp-NH2] | 95 | 
CC(C)C[C@H](NC(=O)CNC(=O)[C@H](Cc1ccccc1)NC(=O)c1ccc([N+](=O)[O-])cc1)C(=O)N[C@@H](CCCNC(=N)N)C(=O)N[C@@H](Cc1c[nH]c2ccccc12)C(N)=O [Compound 37, 4-nitrobenzoyl-Phe-Gly-Leu-Arg-Trp-NH2] | 94 | 
CC(C)C[C@H](NC(=O)CNC(=O)[C@H](Cc1ccccc1)NC(=O)c1ccc(Cl)cc1)C(=O)N[C@@H](CCCNC(=N)N)C(=O)N[C@@H](Cc1c[nH]c2ccccc12)C(N)=O [Compound 38, 4-chlorobenzoyl-Phe-Gly-Leu-Arg-Trp-NH2] | 92 | 
CC(C)C[C@H](NC(=O)CNC(=O)[C@H](Cc1ccccc1)NC(=O)c1ccc(F)cc1)C(=O)N[C@@H](CCCNC(=N)N)C(=O)N[C@@H](Cc1c[nH]c2ccccc12)C(N)=O [Compound 39, 4-fluorobenzoyl-Phe-Gly-Leu-Arg-Trp-NH2] | 96 | 
CC(C)C[C@H](NC(=O)CNC(=O)[C@H](Cc1ccccc1)NC(=O)[C@H](CO)NC(=O)[C@H](CC(N)=O)NC(=O)[C@H](Cc1c[nH]c2ccccc12)NC(=O)[C@H](CC(N)=O)NC(=O)[C@@H](N)Cc1ccc(O)cc1)C(=O)N[C@@H](CCCNC(=N)N)C(=O)N[C@@H](Cc1ccccc1)C(N)=O [Metastin (45-54), reference compound] | 100 | EC50: 0.36 to 1.1 nM; Q (=EC50 (compound)/EC50 [metastin (45-54)]): 1.0
